Assay [1] deals with T1, Aurora kinase A (Homo sapiens) (UniProt O14965).
T1 sequence (whole entry): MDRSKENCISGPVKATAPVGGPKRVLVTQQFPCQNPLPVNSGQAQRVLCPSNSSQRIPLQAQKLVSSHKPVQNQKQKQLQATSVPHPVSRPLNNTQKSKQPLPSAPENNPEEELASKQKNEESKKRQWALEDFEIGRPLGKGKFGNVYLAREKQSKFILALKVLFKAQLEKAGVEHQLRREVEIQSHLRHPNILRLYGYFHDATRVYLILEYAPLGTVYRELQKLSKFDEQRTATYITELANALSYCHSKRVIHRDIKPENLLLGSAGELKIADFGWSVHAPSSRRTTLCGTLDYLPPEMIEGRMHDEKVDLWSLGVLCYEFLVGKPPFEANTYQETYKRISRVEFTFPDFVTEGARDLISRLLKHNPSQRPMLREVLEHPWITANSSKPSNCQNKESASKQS
Description: Inhibition of Aur A at 10 uM by mobility shift assay.

Assay [2] has as its target T2, Serine/threonine-protein kinase Chk1 (Homo sapiens) (UniProt O14757).
T2 sequence (whole entry): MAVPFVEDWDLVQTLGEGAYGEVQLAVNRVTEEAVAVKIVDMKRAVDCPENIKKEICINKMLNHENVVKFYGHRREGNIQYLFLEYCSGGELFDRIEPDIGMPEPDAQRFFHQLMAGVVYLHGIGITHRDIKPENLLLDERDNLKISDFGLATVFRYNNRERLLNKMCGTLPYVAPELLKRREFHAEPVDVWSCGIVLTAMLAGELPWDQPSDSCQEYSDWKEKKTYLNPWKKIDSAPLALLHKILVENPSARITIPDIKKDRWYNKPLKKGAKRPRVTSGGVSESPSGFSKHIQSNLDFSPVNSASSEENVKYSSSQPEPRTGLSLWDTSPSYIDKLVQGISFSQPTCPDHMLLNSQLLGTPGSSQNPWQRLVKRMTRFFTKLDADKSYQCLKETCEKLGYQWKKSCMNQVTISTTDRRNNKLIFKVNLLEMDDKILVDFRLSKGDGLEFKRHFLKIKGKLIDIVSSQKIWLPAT
Put plainly: Inhibition of CHK1 at 10 uM by mobility shift assay.

Assay [3] in a line: Inhibition of PKA at 10 uM by mobility shift assay.
Assay [4] deals with RAC-alpha serine/threonine-protein kinase (Homo sapiens) (UniProt P31749). Put plainly: Inhibition of AKT1 at 10 uM by mobility shift assay.
The target of assay [5] is Tyrosine-protein kinase ABL1 (Homo sapiens, UniProt P00519). Put plainly: Inhibition of ABL1 by Z-lite assay.
Assay [6] has as its target T3, Serine/threonine-protein kinase Chk1 (Homo sapiens, UniProt O14757).
T3 sequence (O14757 whole entry): T2 sequence (whole entry)
Put plainly: Inhibition of CHK1 by DELFIA.

For assay [7], the target named is Glycogen synthase kinase-3 beta (Homo sapiens, UniProt P49841). Description: Inhibition of GSK3-beta.

From ChEMBL document CHEMBL1177828, “Design and evaluation of 3,6-di(hetero)aryl imidazo[1,2-a]pyrazines as inhibitors of checkpoint and other kinases” (Bioorg Med Chem Lett, 2010) come the findings set out here.

RAC-alpha serine/threonine-protein kinase (Homo sapiens), sequence (P31749 whole entry): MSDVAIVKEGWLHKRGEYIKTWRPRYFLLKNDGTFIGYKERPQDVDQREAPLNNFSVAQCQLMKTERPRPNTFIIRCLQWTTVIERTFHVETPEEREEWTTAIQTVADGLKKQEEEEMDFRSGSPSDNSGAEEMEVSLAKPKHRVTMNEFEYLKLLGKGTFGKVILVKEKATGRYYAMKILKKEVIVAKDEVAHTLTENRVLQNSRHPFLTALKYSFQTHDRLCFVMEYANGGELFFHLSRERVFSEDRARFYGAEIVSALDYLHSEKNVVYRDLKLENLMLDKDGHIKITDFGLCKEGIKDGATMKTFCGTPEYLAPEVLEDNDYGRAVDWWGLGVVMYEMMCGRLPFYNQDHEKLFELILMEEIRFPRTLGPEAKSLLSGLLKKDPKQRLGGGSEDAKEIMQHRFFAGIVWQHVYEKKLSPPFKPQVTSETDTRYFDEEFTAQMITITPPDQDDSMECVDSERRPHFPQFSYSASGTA
Tyrosine-protein kinase ABL1, sequence (P00519 whole entry): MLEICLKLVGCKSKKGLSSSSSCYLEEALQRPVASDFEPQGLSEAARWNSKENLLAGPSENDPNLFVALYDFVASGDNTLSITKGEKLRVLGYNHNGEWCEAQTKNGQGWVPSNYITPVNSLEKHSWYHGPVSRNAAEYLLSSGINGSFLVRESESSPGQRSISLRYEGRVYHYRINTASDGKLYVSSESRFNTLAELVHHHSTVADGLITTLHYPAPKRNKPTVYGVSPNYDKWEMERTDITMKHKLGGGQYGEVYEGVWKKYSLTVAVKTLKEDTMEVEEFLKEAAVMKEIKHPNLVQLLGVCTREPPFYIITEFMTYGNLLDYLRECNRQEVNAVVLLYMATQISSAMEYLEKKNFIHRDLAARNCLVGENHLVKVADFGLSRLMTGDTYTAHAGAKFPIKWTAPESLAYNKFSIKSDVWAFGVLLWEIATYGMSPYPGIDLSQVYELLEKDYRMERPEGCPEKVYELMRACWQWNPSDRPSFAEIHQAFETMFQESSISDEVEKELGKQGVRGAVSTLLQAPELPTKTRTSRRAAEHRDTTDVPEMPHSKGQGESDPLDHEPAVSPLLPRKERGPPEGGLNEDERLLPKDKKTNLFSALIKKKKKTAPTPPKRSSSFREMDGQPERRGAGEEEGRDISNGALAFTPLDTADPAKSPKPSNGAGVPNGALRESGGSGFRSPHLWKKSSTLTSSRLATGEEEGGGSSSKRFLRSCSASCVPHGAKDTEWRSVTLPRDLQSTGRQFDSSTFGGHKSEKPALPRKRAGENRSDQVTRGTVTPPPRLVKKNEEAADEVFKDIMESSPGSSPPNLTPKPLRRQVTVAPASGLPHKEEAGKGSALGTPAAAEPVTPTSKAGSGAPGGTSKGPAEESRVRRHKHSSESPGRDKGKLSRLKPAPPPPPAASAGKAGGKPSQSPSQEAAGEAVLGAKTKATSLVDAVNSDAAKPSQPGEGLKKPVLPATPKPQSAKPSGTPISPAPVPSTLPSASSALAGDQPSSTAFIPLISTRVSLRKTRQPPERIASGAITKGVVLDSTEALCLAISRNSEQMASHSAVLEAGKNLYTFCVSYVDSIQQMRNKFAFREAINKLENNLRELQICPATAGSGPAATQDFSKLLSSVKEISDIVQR
Glycogen synthase kinase-3 beta, sequence (P49841 whole entry): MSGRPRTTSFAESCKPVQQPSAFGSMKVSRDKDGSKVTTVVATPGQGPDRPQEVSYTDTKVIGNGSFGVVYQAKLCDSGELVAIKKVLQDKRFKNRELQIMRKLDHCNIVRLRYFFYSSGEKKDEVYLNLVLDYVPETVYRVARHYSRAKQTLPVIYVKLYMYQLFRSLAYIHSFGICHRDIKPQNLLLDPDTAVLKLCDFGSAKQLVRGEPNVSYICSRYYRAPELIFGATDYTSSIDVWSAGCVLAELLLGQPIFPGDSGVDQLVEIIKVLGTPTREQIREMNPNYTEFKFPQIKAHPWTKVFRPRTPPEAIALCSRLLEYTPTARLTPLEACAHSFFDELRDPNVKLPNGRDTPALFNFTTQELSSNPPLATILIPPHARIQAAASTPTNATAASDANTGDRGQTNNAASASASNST

`OCc1cccc(-c2cn3c(-c4cn[nH]c4)cnc3cn2)c1`: the inhibition (as a rule, the change of the read-out against control, counted positive when it falls) in assay [1] was 45%; in assay [2] it was 32%; in assay [3] it was -1%.

For `c1ccc2c(-c3cnc4cnc(-c5cn[nH]c5)cn34)c[nH]c2c1`, the inhibition was 87% in assay [1], 68% in assay [2], 11% in assay [4] and 2% in assay [3].

On to `c1n[nH]cc1-c1cnc2ncc(-c3cn[nH]c3)n2c1`, for which the inhibition in assay [1] was 86%; in assay [2], 40%; in assay [4], -6%. Further, the IC50 (in general, the midpoint of a concentration-inhibition curve) in assay [5] was 440 nM; in assay [6], 5 µM.

With `c1ccc(-c2cnc3cnc(-c4ccncc4)cn23)cc1`, the inhibition came out at 21% in assay [1] and 8% in assay [2]. Also, the midpoint of inhibition in assay [7], the IC50, lay at 3.1 µM.
